In patent US11591326B2, “Inhibitors of protein arginine methyltransferase 5 (PRMT5), pharmaceutical products thereof, and methods thereof” (PHARMABLOCK SCIENCES (NANJING), INC., priority 2018, dated 2023):

Columns and labels:
[1] = system: Mantle Cell Lymphoma Z-138 cell; assay: Cell proliferation inhibition, Z-138 (CCK8); format: cell-based; details: Z-138, incubated 4 days
Source text: (§1) Materials and Cell Lines: Z-138, U251, and MIA PaCa2 cells were purchased from ATCC (American Type Culture Collection, Manassas, Va.) and Chinese Academy of Science (Shanghai, China). Iscove's Modified Dulbecco's Medium (IMDM), Dulbecco's Modified Eagle Medium (DMEM), penicillin-streptomycin, heat inactivated fetal bovine serum (FBS), and horse serum was purchased from ThermoFisher, Waltham, Mass., USA. Corning 96- and 384-well cell culture plates were purchased from ThermoFisher, Waltham, Mass., USA. Cell-Titer Glo® was purchased from Promega Corporation, Madison, Wis., USA.
In order to evaluate the inhibitory ability of compounds synthesized on the proliferation of the Mantle Cell Lymphoma Z-138 cell, exponentially growing cells were seeded in the media of IMDM with 10% horse serum and 1% penicillin-streptomycin at a concentration of 30000 cells/ml in a 96-well plate with 100 ul per well and incubated overnight at 37° C., 5% CO2 incubator. Compounds were prepared as 10-point, 3-fold serial dilutions in DMSO, beginning at 6 mM. 1 μl of DMSO solutions from the compound stock plates were added to 99 ul of cell culture media (final top concentration of compound in the assay was 30 uM and the final concentration of DMSO was 0.5%). 100 μL of compound solutions in media were added to each well of Z-138 cell plates. After adding compound solutions, assay plates were incubated for 4 days at 37° C., 5% CO2. Cell viability was measured using the Cell Counting Kit-8 (CCK8) obtained from the Beyotime Biotehnology, Shanghai, China. 20 ul of CCK8 reagent was added to each well of the Z-138 assay plate which was incubated at 37° C. for 2 hours. O.D. at 450 nm was read with the FlexStation 3 microplate reader (Molecular Devices, Sunnyvale, Calif. 94089 USA). The concentrations of compounds inhibiting cell viability by 50% (IC50 values) were determined using a sigmoidal dose-response model (variable slopes, four parameters) in Prism 7 (La Jolla, Calif.).

[2] = system: Pancreatic Carcinoma MIA PaCa-2 cell; assay: Cell proliferation inhibition, MIA PaCa-2 (CellTiter-Glo); format: cell-based; details: Homo sapiens, MIA PaCa-2, incubated for 12 days (read after 8 or 12 days), read-out: IC50 (μM) MIA PaCa2
Source text: as §1
In order to evaluate the inhibitory ability of compounds synthesized on the proliferation of the Pancreatic Carcinoma MIA PaCa-2 cell, exponentially growing cells were seeded in the culture media of DMEM with 10% FBS, 2.5% horse serum, 1 mM of Sodium Pyruvate and 1% penicillin-streptomycin at a concentration of 2500 cells/ml in a 384-well plate with 20 ul per well and incubated overnight at 37° C., 5% CO2 incubator. Compounds were prepared as 10-point, 3-fold serial dilutions in DMSO, beginning at 6 mM. 1 μl of DMSO solutions from the compound stock plates were added to 99 ul of cell media (final top concentration of compound in the assay was 30 uM and the final concentration of DMSO was 0.5%). 20 μL of compound solutions in media were added to each well of MIA PaCa-2 cell plates. After adding compound solutions, assay plates were incubated for 12 days at 37° C., 5% CO2. During this incubation period, cell media was changed every 4 days. After removing old media from cell plates, 40 ul of media with testing compounds dissolved, which were prepared by adding 1 ul of compound DMSO serial solutions to 199 ul of cell media, were added to the assay plates with the same layout as they were initially prepared. After 8 or 12 days, cell viability was measured using the CellTiter-Glo assay kit from Promega (Madison, Wis., USA) by quantitating the ATP present in the cell cultures. 20 μL of CellTiter-Glo reagent was added to each well of the cell plates. Luminescence was read after 10 minute of incubation with the Envision multiple plate reader from PerkinElmer (Waltham, Mass., USA). The concentrations of compounds inhibiting cell viability by 50% (IC50 values) were determined using a sigmoidal dose-response model (variable slopes, four parameters) in Prism 7 (La Jolla, Calif., USA).

[3] = target: Human recombinant PRMT5 in complex with human recombinant MEP50 (Homo sapiens (Human), UniProt O14744); assay: PRMT5/MEP50 AlphaLISA enzyme inhibitory assay; format: biochemical; details: PRMT5/MEP50 25 nM, SAM 10 μM, Biotin-H4 peptide 30 nM
Chain of Human recombinant PRMT5 in complex with human recombinant MEP50 (O14744 whole entry): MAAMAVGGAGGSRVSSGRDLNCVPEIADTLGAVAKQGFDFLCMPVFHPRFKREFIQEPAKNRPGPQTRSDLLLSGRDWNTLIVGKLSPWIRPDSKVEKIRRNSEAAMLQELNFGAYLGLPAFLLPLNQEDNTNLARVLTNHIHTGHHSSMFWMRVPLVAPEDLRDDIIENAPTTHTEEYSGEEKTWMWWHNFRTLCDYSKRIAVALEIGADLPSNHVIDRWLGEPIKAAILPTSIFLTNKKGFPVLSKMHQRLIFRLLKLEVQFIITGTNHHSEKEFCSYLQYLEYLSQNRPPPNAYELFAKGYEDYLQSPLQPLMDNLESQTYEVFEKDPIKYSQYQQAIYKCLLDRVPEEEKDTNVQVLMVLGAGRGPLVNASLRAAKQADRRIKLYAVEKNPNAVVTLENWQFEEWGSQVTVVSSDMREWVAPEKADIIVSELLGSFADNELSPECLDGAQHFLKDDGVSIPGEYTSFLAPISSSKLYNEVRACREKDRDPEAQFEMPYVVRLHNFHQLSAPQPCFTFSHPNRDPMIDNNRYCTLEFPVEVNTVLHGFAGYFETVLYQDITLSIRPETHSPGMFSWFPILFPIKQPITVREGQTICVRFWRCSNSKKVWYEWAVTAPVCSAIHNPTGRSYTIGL
Chain of Human recombinant PRMT5 in complex with human recombinant MEP50 (Q9BQA1 whole entry partner): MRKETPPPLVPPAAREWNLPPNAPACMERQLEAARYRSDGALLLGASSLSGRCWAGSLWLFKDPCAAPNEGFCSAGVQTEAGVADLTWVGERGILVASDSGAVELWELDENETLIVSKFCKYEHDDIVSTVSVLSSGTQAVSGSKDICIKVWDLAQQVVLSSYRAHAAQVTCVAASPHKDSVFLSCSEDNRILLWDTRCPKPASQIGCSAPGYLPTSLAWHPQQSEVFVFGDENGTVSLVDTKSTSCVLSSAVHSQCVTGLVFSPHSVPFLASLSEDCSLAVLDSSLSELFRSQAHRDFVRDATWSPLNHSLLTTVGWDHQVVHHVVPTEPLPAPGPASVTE
In short: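 Insect-cell-expressed PRMT5/MEP50 (25 nM) preincubated with SAM (10 μM), then 15 min with compound in pH 8.5 Tris buffer, 1% DMSO. Biotin-H4(1–21) peptide (30 nM) reaction ran 120 min at room temperature. H4R3 methylation detected by AlphaLISA; IC50 from four-parameter sigmoidal fit.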

[4] = system: Glioblastoma U-251 cell; assay: Cell proliferation inhibition, U-251 (CellTiter-Glo); format: cell-based; details: Homo sapiens, U-251, incubated for 12 days (read after 8 or 12 days)
Source text: as §1
In order to evaluate the inhibitory ability of compounds synthesized on the proliferation of the Glioblastoma U-251 cell, exponentially growing cells were seeded in the cell culture media of DMEM with 10% FBS and 1% penicillin-streptomycin at a concentration of 10000 cells/ml in a 384-well plate with 20 ul per well and incubated overnight at 37° C., 5% CO2 incubator. Compounds were prepared as 10-point, 3-fold serial dilutions in DMSO, beginning at 6 mM. 1 μl of DMSO solutions from the compound stock plates were added to 99 ul of cell culture media (final top concentration of compound in the assay was 30 uM and the final concentration of DMSO was 0.5%). 20 μL of compound solutions in media were added to each well of U-251 cell plates. After adding compound solutions, assay plates were incubated for 12 days at 37° C., 5% CO2. During this incubation period, cell culture media with freshly dissolved testing compounds was changed every 4 days. After removing old media from cell plates, 40 ul of media with testing compounds dissolved, which were prepared by adding 1 ul of compound DMSO serial solutions to 199 ul of cell media, were added to the assay plates with the same layout as they were initially prepared. After 8 or 12 days, cell viability was measured using the CellTiter-Glo assay kit from Promega (Madison, Wis., USA) by quantitating the ATP present in the cell cultures. 20 μL of CellTiter-Glo reagent was added to each well of the cell plates. Luminescence was read after 10 minute of incubation with the Envision multiple plate reader from PerkinElmer (Waltham, Mass., USA). The concentrations of compounds inhibiting cell viability by 50% (IC50 values) were determined using a sigmoidal dose-response model (variable slopes, four parameters) in Prism 7 (La Jolla, Calif., USA).

SMILES	IC50 ([1]; Homo sapiens, Z-138, 96 h) [µM]	IC50 [2] [µM]	IC50 [3] [nM]	IC50 [4] [µM]	IC50 ([1]; listed as Ref 1 (EPZ-015666a)) [µM]
CC(=O)N1CCC(Nc2cc(F)c3c(c2)C(=O)N(C[C@H](O)CN2CCc4ccccc4C2)CCO3)CC1 [Compound 2a, (R)-7-((1-acetylpiperidin-4-yl)amino)-4-(3-(3,4-dihydroisoquinolin-2(1H)-yl)-2-hydroxypropyl)-9-fluoro-3,4-dihydrobenzo[f][1,4]oxazepin-5(2H)-one]	0.041	0.024	57	–	–
Cn1cc(Nc2ccc3c(c2)C(=O)N(C[C@H](O)CN2CCc4ccccc4C2)CC3)cn1 [Compound 12a, (R)-2-(3-(3,4-dihydroisoquinolin-2(1H)-yl)-2-hydroxypropyl)-7-((1-methyl-1H-pyrazol-4-yl)amino)-3,4-dihydroisoquinolin-1(2H)-one]	0.13	0.66	12	0.48	–
O=C1c2cc(Nc3ccnnc3)ccc2CCN1C[C@H](O)CN1CCc2ccccc2C1 [Compound 28a, (R)-2-(3-(3,4-dihydroisoquinolin-2(1H)-yl)-2-hydroxypropyl)-7-(pyridazin-4-ylamino)-3,4-dihydroisoquinolin-1(2H)-one]	0.029	0.68	4.9	0.5	–
Cn1cc(Nc2ccc3c(c2)C(=O)N(C[C@H](O)CN2CCc4ccccc4C2)CCO3)cn1 [Compound 29a, (R)-4-(3-(3,4-dihydroisoquinolin-2(1H)-yl)-2-hydroxypropyl)-7-((1-methyl-1H-pyrazol-4-yl)amino)-3,4-dihydrobenzo[f][1,4]oxazepin-5(2H)-one]	0.073	0.4	8.4	0.14	–
O=C1c2cc(Nc3ccnnc3)ccc2OCCN1C[C@H](O)CN1CCc2ccccc2C1 [Compound 30a, (R)-4-(3-(3,4-dihydroisoquinolin-2(1H)-yl)-2-hydroxypropyl)-7-(pyridazin-4-ylamino)-3,4-dihydrobenzo[f][1,4]oxazepin-5(2H)-one]	0.018	0.23	4.6	0.18	–
CC(=O)N1CCC(Nc2ccc3c(c2)C(=O)N(C[C@@H](O)CN2CCc4ccccc4C2)CCO3)CC1 [Compound 52b]	0.137	0.83	108	5.8	–
O=C(NC[C@H](O)CN1CCc2ccccc2C1)c1cc(NC2COC2)ncn1 [Compound C1, reference compound]	0.11	2	–	1.2	0.16
O=C(NC[C@@H](O)CN1CCc2ccccc2C1)c1cc(NC2COC2)ncn1 [Compound C2, reference compound]	9.1	12.1	–	28.3	–
